Patent publication US20230310542A1, “EPIGENETIC MODIFIERS TO TREAT RETINAL DEGENERATIONS” (priority 2022, published 2023)

Assays:
rod nuclei = conditions: WT + TCP, PN24
Protocol: (§1) Retinas were fixed in 4% paraformaldehyde overnight at 4° C., washed in PBS, incubated in 5% sucrose/PBS for 30 min and then cryopreserved in 20% sucrose/PBS overnight at 4° C. Retinas were embedded in 2:1 mix of 20% sucrose and OCT (Sakura Finetek Torrance, CA) and stored at −80° C. Blocks with tissue samples were sectioned to 7-10 μm on a Cryostat Microtome HM550 (Thermo Fisher Scientific) and stored at −20° C. Antigen retrieval was performed by incubating the slides in 10 mM sodium citrate pH 6 for 30 min at 80° C. Double labeling immunohistochemistry was performed using fluorescent Alexa Fluor-conjugated secondary antibodies diluted 1:800 (Invitrogen, Carlsbad, California). Primary antibodies were diluted as follow: anti-H3K4me2 1:600, anti-H3K9me2 1:600, anti-RHO 1:50, anti-OPN1SW 1:400, anti-GFAP 1:1000, anti-IBA1 1:450 (AifI gene). […] The acquisition parameters were maintained constant for each set of experiments. Fluorescence intensity was assessed using ImageJ software (Bethesda, MD).
The number of heterochromatin foci in rod nuclei was calculated to estimate the level of rod photoreceptor maturation in retinas of animals treated with LSD1 inhibitors (FIG. 10B).

rd10 mice retina = assay: RT-PCR retinal gene expression, rd10 mice; type: in vivo, mouse
Protocol: (§2) Whole retinas were isolated from animals by removing the sclera and most of the retinal pigmented epithelium (RPE) layer under PBS. The right eye retinas from each animal were taken for RNA extraction, cDNA preparation and RT-PCR. Immediately after isolation, tissue was flash frozen in liquid nitrogen and stored at −80° C. Left eye retinas from each animal were subjected to fixation, cryopreservation, sectioning, and immunofluorescence staining. RNA extraction and purification followed the manufacturer's protocol from RNeasy Mini Kit and RNA shredder (Qiagen). […] Primers purchased from Integrated DNA Technologies (IDT). For quantitative real-time PCR we used 2× iQ-SYBR Green PCR supermix from Bio-Rad. Samples in triplicate were run on an iQ5 Multicolor Real Time PCR Detection System (Bio-Rad). The relative expression level for each gene was calculated by the 2-ΔΔCt method and normalized to GAPDH.

H3K4me2, H3K9me2 = assay: Anti-H3K4me2 and anti-H3K9me2 Western blot of WT retina; type: in vivo, mouse; conditions: WT mice treated PN9 till PN24
Protocol: Both retinas from one animal were flash frozen together in liquid nitrogen and stored at −80° C. Samples for SDS-PAGE were prepared by resuspended retinas in 50 μl PBS. Laemmli sample buffer was added, samples were boiled for 10 min, resolved on Criterion TGX Precast Gel AnyKD (Bio-Rad), transferred to nitrocellulose membrane, and immunoblotted with antibodies anti-H3K9me2 or anti-H3K4me2 diluted 1:5000; anti-ACTB diluted 1:10000; anti-PDE6B (1:500). Secondary goat anti-rabbit/mouse HRP (Jackson Immuno-Research Laboratory, West Grove, PA) was diluted 1:5000. An ECL western blot detection system (Thermo Fisher Scientific) was used to visualize the bound of the primary antibody.

rd10 mice = assay: Rod photoreceptor preservation in rd10 mice (photoreceptor rows in ONL, immunofluorescence); type: in vivo, mouse
Protocol: (§3) All inhibitors were diluted in 0.9% bacteriostatic sodium chloride (saline).
as §1

rd10 = conditions: TCP PN9 till PN24
Protocol: Retinas were fixed in 4% paraformaldehyde overnight at 4° C., washed in PBS, incubated in 5% sucrose/PBS for 30 min and then cryopreserved in 20% sucrose/PBS overnight at 4° C. Retinas were embedded in 2:1 mix of 20% sucrose and OCT (Sakura Finetek Torrance, CA) and stored at −80° C. Blocks with tissue samples were sectioned to 7-10 μm on a Cryostat Microtome HM550 (Thermo Fisher Scientific) and stored at −20° C. TUNEL assay was carried out using the In situ Cell death detection kit, Fluorescein from Roche (Germany) according to manufacturer's instruction.

WT mice retina = assay: RT-PCR retinal gene expression, WT mice; type: in vivo, mouse
Protocol: as §2

WT mice = conditions: TCP PN9 till PN24
Protocol: as §3, §1

GFAP, IBA1 = assay: Immunofluorescence labeling of GFAP and IBA1 in retina sections; type: in vivo, mouse; conditions: rd10, treated PN9 till PN24; levels remained above WT
Protocol: Fluorescence intensity was assessed using ImageJ software (Bethesda, MD).

rd1 mice = conditions: previous studies; cited from earlier work
RGC = conditions: previous study; cited from earlier work
RP = conditions: previous studies, cited from earlier work; for protective effect on RP: non-selective HDAC inhibitors

N[C@@H]1C[C@H]1c1ccccc1 (relative stereo) [TCP, trans-2-Phenylcyclopropylamine]
rod nuclei with 3 foci (rod nuclei; WT saline 2%): 7%
rod nuclei with two foci (rod nuclei; WT saline 43%): 51%
rod nuclei with one focus (rod nuclei; WT saline 55%): 42%
expression of rod photoreceptor genes relative to GAPDH (rd10 mice retina; treated PN9 till PN24, assayed PN24, vs saline): increased expression of almost all rod genes
expression of cone genes Thrb or Gnat2 (rd10 mice retina; treated PN9 till PN24 vs saline): slightly up-regulated
global levels of H3K4me2 (H3K4me2, H3K9me2): did not change significantly
global levels of H3K9me2 (H3K4me2, H3K9me2): No changes
rows of photoreceptors remaining in the ONL at PN24 (rd10 mice; TCP 10 mg/kg i.p. daily PN9 till PN24): 7 rows
dying cells by TUNEL staining vs control (rd10): no significant difference
expression of rod photoreceptor genes (WT mice retina; WT mice treated PN9 till PN24): no changes
expression of transcription factors of retina development and maturation (WT mice retina; WT retinas, treated PN9 till PN24): slightly increased expression
ONL thickness (WT mice): significantly increased
number of rows of rods (WT mice): did not change
IBA1 labeling (microglia) (GFAP, IBA1): decreased

Nc1nccc2c1ncn2[C@@H]1C=C(CO)[C@@H](O)[C@H]1O [DZNep, 3-deazaneplanocin A]
retinal degeneration / photoreceptor loss in rd1 mouse (rd1 mice): delays in retinal degeneration

Nc1cc(F)ccc1NC(=O)/C=C/c1cnn(C/C=C/c2ccccc2)c1 [RGFP966]
RGC death (RGC): protected against RGC death

CC(/C=C/C(=O)NO)=C\[C@@H](C)C(=O)c1ccc(N(C)C)cc1 [TSA]
protective effect on RP (RP): some protective effect

CCCC(CCC)C(=O)O [VPA]
protective effect on RP (RP): some protective effect
outcome as therapeutic agent for retinal degeneration (RP): mixed results

C/C=C1\NC(=O)[C@H]2CSSCC/C=C/[C@H](CC(=O)N[C@H](C(C)C)C(=O)N2)OC(=O)[C@H](C(C)C)NC1=O [romidepsin]
rows of photoreceptor remaining in the ONL at PN24 (rd10 mice; romidepsin 0.2 mg/kg i.p. daily PN9 till PN24, saline control 2-3 rows): 8 rows

CCCC(=O)[O-].[Na+] [sodium butyrate]
protective effect on RP (RP): some protective effect
